The text below walks through data of patent US7528138B2, “Pyrazolo[1,5-a]pyrimidines useful as inhibitors of protein kinases” (Vertex Pharmaceuticals Incorporated, priority 2004, dated 2009).

The structures appear in SMILES notation.

For one assay, the target named is T1, Aurora-2 (Homo sapiens, UniProt O14965).
T1 sequence (O14965 1-403): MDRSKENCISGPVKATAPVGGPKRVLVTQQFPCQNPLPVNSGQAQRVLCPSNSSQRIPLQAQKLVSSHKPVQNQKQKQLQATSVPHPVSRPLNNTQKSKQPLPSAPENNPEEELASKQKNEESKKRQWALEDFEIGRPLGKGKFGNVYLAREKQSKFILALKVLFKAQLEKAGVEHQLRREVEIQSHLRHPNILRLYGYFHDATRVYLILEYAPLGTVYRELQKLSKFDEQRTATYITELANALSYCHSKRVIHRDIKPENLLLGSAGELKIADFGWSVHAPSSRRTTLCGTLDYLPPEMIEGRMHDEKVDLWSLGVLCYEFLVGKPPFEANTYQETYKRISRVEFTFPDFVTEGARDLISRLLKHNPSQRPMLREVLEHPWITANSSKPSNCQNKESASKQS
Nature of the assay: Aurora-A (Aurora-2) Inhibition Assay, coupled enzyme assay. As to conditions: enzyme inhibition data (Ki), Table 11; read-out: AurA Ki. The class given is biochemical. Put shortly:
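Coupled pyruvate kinase/lactate dehydrogenase assay following NADH, pH 7.5 Hepes, 40 nM Aurora-2, 400 μM ATP and 570 μM Kemptide at 30 °C. Compound (top final typically 7.5 μM) preincubated 10 min; initial rates over 10 min; IC50 and Ki by non-linear regression.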

For another assay, the target named is c-Met (Homo sapiens, UniProt P08581). Nature of the assay: c-Met Inhibition Assay, coupled enzyme system. In kind it is biochemical. The following applies: enzyme inhibition data (Ki), Table 11. In outline:
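Pyruvate kinase/lactate dehydrogenase-coupled NADH assay in HEPES pH 7.5 with 80 nM c-Met, 200 μM ATP and 10 μM polyGluTyr at 30° C. Compound (0.006–12.5 μM final, 12-point) preincubated 10 min before ATP start; rates over 10 min gave Ki.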

c-Met, sequence (P08581 25-1390): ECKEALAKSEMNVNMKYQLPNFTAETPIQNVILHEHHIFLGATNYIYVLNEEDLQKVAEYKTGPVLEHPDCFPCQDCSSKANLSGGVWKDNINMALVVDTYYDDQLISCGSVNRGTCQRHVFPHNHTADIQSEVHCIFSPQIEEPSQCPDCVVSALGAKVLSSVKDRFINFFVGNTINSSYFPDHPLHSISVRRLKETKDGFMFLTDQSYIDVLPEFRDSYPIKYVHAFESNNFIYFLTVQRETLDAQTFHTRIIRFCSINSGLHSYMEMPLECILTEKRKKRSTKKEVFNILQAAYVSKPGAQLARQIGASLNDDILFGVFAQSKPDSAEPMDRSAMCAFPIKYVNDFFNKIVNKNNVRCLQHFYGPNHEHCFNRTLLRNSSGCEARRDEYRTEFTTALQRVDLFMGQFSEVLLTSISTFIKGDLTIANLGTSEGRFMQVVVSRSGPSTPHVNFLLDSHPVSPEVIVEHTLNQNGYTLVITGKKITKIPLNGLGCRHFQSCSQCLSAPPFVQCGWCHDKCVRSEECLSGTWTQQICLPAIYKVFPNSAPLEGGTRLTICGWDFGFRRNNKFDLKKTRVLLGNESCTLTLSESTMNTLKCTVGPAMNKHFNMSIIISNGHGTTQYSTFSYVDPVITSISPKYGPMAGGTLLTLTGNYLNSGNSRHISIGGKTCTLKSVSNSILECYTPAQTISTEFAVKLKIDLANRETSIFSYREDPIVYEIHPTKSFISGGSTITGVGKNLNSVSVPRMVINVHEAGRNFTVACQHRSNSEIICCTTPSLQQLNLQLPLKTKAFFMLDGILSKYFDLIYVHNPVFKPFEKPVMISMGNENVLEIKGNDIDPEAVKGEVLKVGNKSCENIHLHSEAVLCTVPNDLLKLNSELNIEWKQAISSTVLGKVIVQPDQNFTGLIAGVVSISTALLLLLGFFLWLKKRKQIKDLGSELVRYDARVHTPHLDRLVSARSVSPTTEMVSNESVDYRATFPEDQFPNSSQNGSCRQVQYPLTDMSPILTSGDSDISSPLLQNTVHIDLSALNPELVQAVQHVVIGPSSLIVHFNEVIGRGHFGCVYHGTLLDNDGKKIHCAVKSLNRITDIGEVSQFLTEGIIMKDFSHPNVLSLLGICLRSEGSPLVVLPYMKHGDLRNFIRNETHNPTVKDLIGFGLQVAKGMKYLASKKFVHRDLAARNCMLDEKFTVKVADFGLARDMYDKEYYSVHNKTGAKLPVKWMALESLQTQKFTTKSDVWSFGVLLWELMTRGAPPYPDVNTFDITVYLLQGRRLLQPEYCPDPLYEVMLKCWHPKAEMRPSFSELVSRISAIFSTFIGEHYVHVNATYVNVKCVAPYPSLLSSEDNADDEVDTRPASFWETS

For `COc1ccc(-c2cnc3c(C#N)c(N)nn3c2)cc1` [Compound V-2], the Ki on Aurora-2 and at c-Met was 500 to 5000 nM each time.
For the molecule `COc1ccncc1-c1cnc2c(-c3ccccn3)c(N)nn2c1` [Compound V-22], the inhibition constant Ki at Aurora-2 is 500 to 5000 nM; at c-Met, less than 500 nM.
For the molecule `CCOC(=O)c1c(N)nn2cc(-c3ccc(Cl)cc3)cnc12` [Compound V-24], the Ki on Aurora-2 and on c-Met was 500 to 5000 nM in each case.
Take `CCN(C(=O)c1c(N)nn2cc(-c3ccncn3)cnc12)C(C)C` [Compound V-33]: the inhibitory constant (Ki) on Aurora-2 and at c-Met was 500 to 5000 nM each time.
Consider `CC(C)N1CCN(c2ccc(-c3cnc4c(-c5ccccn5)c(N)nn4c3)cc2)CC1` [Compound V-51], for which the inhibition constant Ki at Aurora-2 is 500 to 5000 nM; at c-Met, less than 500 nM.
As to `CN(C)CCNC(=O)c1cccc(-c2cnc3c(-c4ccccn4)c(N)nn3c2)c1` [Compound V-54], the inhibition constant Ki at Aurora-2 is 500 to 5000 nM; at c-Met, less than 500 nM.
`CN1CCN(C(=O)c2cccc(-c3cnc4c(-c5ccccn5)c(N)nn4c3)c2)CC1` [Compound V-55]: the Ki on Aurora-2 is 500 to 5000 nM; on c-Met it was less than 500 nM.
Take `Nc1nn2cc(N3CCOCC3)cnc2c1-c1ccccn1` [Compound V-57]: the Ki at Aurora-2 was 500 to 5000 nM; at c-Met, less than 500 nM.
With `CCN(CCN)C(=O)c1ccc(-c2cnc3c(-c4ccccn4)c(N)nn3c2)nc1` [Compound V-62], the results for the Ki at Aurora-2 and on c-Met were 500 to 5000 nM and less than 500 nM, respectively.
The corresponding values for `CCN1CCN(C(=O)c2ccc(-c3cnc4c(-c5ccccn5)c(N)nn4c3)nc2)CC1` [Compound V-63] are less than 500 nM and less than 500 nM.
Consider `COC(=O)N1CCN(C(=O)c2ccc(-c3cnc4c(-c5ccccn5)c(N)nn4c3)nc2)CC1` [Compound V-64], for which the inhibitory constant (Ki) at Aurora-2 and at c-Met was less than 500 nM throughout.
`CN(C)CCNC(=O)c1ccc(-c2cnc3c(-c4ccccn4)c(N)nn3c2)nc1` [Compound V-65]: the Ki on Aurora-2 is 500 to 5000 nM; on c-Met, less than 500 nM.
Consider `CC(C)N(C)C(=O)c1ccc(-c2cnc3c(-c4ccccn4)c(N)nn3c2)nc1` [Compound V-67], for which the Ki at Aurora-2 and at c-Met was less than 500 nM throughout.
For the molecule `COCCN1CCN(C(=O)c2ccc(-c3cnc4c(-c5ccccn5)c(N)nn4c3)nc2)CC1` [Compound V-68], the inhibition constant (Ki) on Aurora-2 and at c-Met was less than 500 nM in each case.
In the case of `CN1CCCN(C(=O)c2ccc(-c3cnc4c(-c5ccccn5)c(N)nn4c3)nc2)CC1` [Compound V-70], the Ki on Aurora-2 and on c-Met was less than 500 nM in each case.
For `Nc1nn2cc(-c3ccc(C(=O)N4CCCC(CO)C4)cn3)cnc2c1-c1ccccn1` (stereo not shown) [Compound V-71], the inhibitory constant (Ki) at Aurora-2 and at c-Met was less than 500 nM throughout.
In the case of `C#CCN(C)C(=O)c1ccc(-c2cnc3c(-c4ccccn4)c(N)nn3c2)nc1` [Compound V-72], the inhibition constant Ki at Aurora-2 and at c-Met was less than 500 nM each time.
`Nc1nn2cc(-c3ccc(C(=O)NCCF)cn3)cnc2c1-c1ccccn1` [Compound V-73]: the values for the inhibition constant (Ki) on Aurora-2 and on c-Met were 500 to 5000 nM and less than 500 nM, respectively.
For `CCN(CCCCN)C(=O)c1ccc(-c2cnc3c(-c4ccccn4)c(N)nn3c2)nc1` [Compound V-74], the results for the inhibition constant Ki on Aurora-2 and at c-Met were 500 to 5000 nM and less than 500 nM, respectively.
Consider `COCCN(C)C(=O)c1ccc(-c2cnc3c(-c4ccccn4)c(N)nn3c2)nc1` [Compound V-75], for which the Ki on Aurora-2 and on c-Met was less than 500 nM in each case.
For the molecule `CCOC(=O)N1CCN(C(=O)c2ccc(-c3cnc4c(-c5ccccn5)c(N)nn4c3)nc2)CC1` [Compound V-76], the Ki at Aurora-2 and at c-Met was less than 500 nM throughout.
With `CCN1CCN(C(=O)c2ccc(-c3cnc4c(-c5ccccn5)c(N)nn4c3)nc2)C(O)C1` (stereo not shown) [Compound V-78], the inhibitory constant (Ki) at Aurora-2 and at c-Met was less than 500 nM in each case.
For the molecule `Nc1nn2cc(-c3ccc(C(=O)N4CCC[C@@H](O)C4)cn3)cnc2c1-c1ccccn1` [Compound V-79], the Ki on Aurora-2 and at c-Met was less than 500 nM throughout.
On to `Nc1nn2cc(-c3ccc(C(=O)N4CCC(N)C4)cn3)cnc2c1-c1ccccn1` (stereo not shown) [Compound V-81], for which the Ki on Aurora-2 and at c-Met was less than 500 nM throughout.
With `Nc1nn2cc(-c3ccc(C(=O)N4CCCCC4CCO)cn3)cnc2c1-c1ccccn1` (stereo not shown) [Compound V-82], the Ki at Aurora-2 was 500 to 5000 nM; at c-Met, less than 500 nM.
As to `Nc1nn2cc(-c3ccc(C(=O)N4CCC(CCO)CC4)cn3)cnc2c1-c1ccccn1` [Compound V-83], the Ki on Aurora-2 and at c-Met was less than 500 nM each time.
Turning to `CCCN(CCCN)C(=O)c1ccc(-c2cnc3c(-c4ccccn4)c(N)nn3c2)nc1` [Compound V-85], the Ki was 500 to 5000 nM on Aurora-2 and less than 500 nM on c-Met.
Take `Nc1nn2cc(-c3ccc(C(=O)N4CCC4)cn3)cnc2c1-c1ccccn1` [Compound V-86]: the values for the inhibitory constant (Ki) on Aurora-2 and at c-Met were 500 to 5000 nM and less than 500 nM, respectively.
As to `Nc1nn2cc(-c3ccc(C(=O)N4CCSCC4)cn3)cnc2c1-c1ccccn1` [Compound V-87], the Ki at Aurora-2 and at c-Met was less than 500 nM throughout.
For the molecule `CCN(C)C(=O)c1ccc(-c2cnc3c(-c4ccccn4)c(N)nn3c2)nc1` [Compound V-89], the Ki at Aurora-2 and at c-Met was less than 500 nM each time.
For `CCN(CCC#N)C(=O)c1ccc(-c2cnc3c(-c4ccccn4)c(N)nn3c2)nc1` [Compound V-90], the Ki at Aurora-2 and at c-Met was less than 500 nM throughout.
Regarding `CCCN(CCO)C(=O)c1ccc(-c2cnc3c(-c4ccccn4)c(N)nn3c2)nc1` [Compound V-92], the Ki at Aurora-2 and at c-Met was less than 500 nM in each case.
For the molecule `Nc1nn2cc(-c3ccc(C(=O)N4CCC[C@@H]4CO)cn3)cnc2c1-c1ccccn1` [Compound V-93], the Ki on Aurora-2 and on c-Met was less than 500 nM throughout.
`CN(CCN)C(=O)c1ccc(-c2cnc3c(-c4ccccn4)c(N)nn3c2)nc1` [Compound V-94]: the Ki is 500 to 5000 nM on Aurora-2 and less than 500 nM on c-Met.
Regarding `Cc1cnc2c(-c3cc(NC(C)C)ncn3)c(N)nn2c1` [Compound V-273], the inhibitory constant (Ki) on Aurora-2 is 500 to 5000 nM; on c-Met, less than 500 nM.
For `COc1ccccc1Nc1cc(-c2c(N)nn3cc(C)cnc23)ncn1` [Compound V-274], the Ki at Aurora-2 is 500 to 5000 nM; on c-Met, less than 500 nM.
For `Cc1cnc2c(-c3cc(N4CCCCC4)ncn3)c(N)nn2c1` [Compound V-276], the values for the Ki on Aurora-2 and on c-Met were 500 to 5000 nM and less than 500 nM, respectively.
For the molecule `Cc1cnc2c(-c3cc(NCC4CC4)ncn3)c(N)nn2c1` [Compound V-277], the Ki at Aurora-2 is 500 to 5000 nM; on c-Met it was less than 500 nM.
The matching figures for `Cc1cnc2c(-c3cc(NCC4CCCO4)ncn3)c(N)nn2c1` (stereo not shown) [Compound V-278]: 500 to 5000 nM and less than 500 nM.
Regarding `Cc1cnc2c(-c3cc(Nc4ccccc4)ncn3)c(N)nn2c1` [Compound V-279], the Ki on Aurora-2 and on c-Met was less than 500 nM in each case.
`Nc1nn2cc(Cl)cnc2c1-c1ccccn1` [Compound V-280]: the results for the inhibitory constant (Ki) on Aurora-2 and on c-Met were less than 500 nM and 500 to 5000 nM, respectively.
The corresponding values for `CSc1cc(-c2c(N)nn3cc(C)cnc23)ncn1` [Compound V-281] are 500 to 5000 nM and less than 500 nM.
As for `Cc1cnc2c(-c3cc(NC4CCN(Cc5ccccc5)CC4)ncn3)c(N)nn2c1` [Compound V-285], the Ki on Aurora-2 was 500 to 5000 nM; on c-Met it was less than 500 nM.
Regarding `Cc1cnc2c(-c3cc(NC4CCN(Cc5ccccc5)C4)ncn3)c(N)nn2c1` (stereo not shown) [Compound V-286], the Ki on Aurora-2 is 500 to 5000 nM; at c-Met it was less than 500 nM.
Turning to `Cc1cnc2c(-c3cc(NC4CC4)ncn3)c(N)nn2c1` [Compound V-289], the inhibition constant (Ki) was 500 to 5000 nM on Aurora-2 and less than 500 nM on c-Met.
`Cc1cnc2c(-c3cc(NC4CCC4)ncn3)c(N)nn2c1` [Compound V-290]: the inhibition constant (Ki) on Aurora-2 is 500 to 5000 nM; on c-Met, less than 500 nM.
Consider `Cc1cnc2c(-c3cc(NC4CCCCC4)ncn3)c(N)nn2c1` [Compound V-291], for which the Ki is 500 to 5000 nM at Aurora-2 and less than 500 nM at c-Met.
As to `Cc1cnc2c(-c3cc(N[C@H](C)CO)ncn3)c(N)nn2c1` [Compound V-293], the Ki on Aurora-2 was 500 to 5000 nM; at c-Met, less than 500 nM.
The corresponding values for `CC[C@H](C)Nc1cc(-c2c(N)nn3cc(C)cnc23)ncn1` [Compound V-294] are 500 to 5000 nM and less than 500 nM.
Consider `Cc1cnc2c(-c3cc(N[C@@H](C)CO)ncn3)c(N)nn2c1` [Compound V-295], for which the Ki at Aurora-2 is 500 to 5000 nM; on c-Met it was less than 500 nM.
